Results as given in patent publication US7196090B2, “Kinase inhibitors” (Warner-Lambert Company, priority 2002, dated 2007).

Row | SMILES | melting point
1 | CCN1C(=O)N(c2cc(OC)cc(OC)c2F)Cc2cnc(NCCOCCO)nc21 [Example 34, 1-Ethyl-3-(2-fluoro-3,5-dimethoxy-phenyl)-7-[2-(2-hydroxy-ethoxy)-ethylamino]-3,4-dihydro-1H-pyrimido[4,5-d]pyrimidin-2-one] | 143 to 146 °C
2 | COc1cc(OC)c(F)c(N2Cc3cnc(NCC(O)C(C)O)nc3N(C3CCCC3)C2=O)c1F (stereo not drawn) [Example 13, 1-Cyclopentyl-3-(2,6-difluoro-3,5-dimethoxy-phenyl)-7-(2,3-dihydroxy-butylamino)-3,4-dihydro-1H-pyrimido[4,5-d]pyrimidin-2-one] | 195 to 196 °C (dec.)
3 | CCN1C(=O)N(c2c(F)c(OC)cc(OC)c2F)Cc2cnc(NCCCN(CCO)CCO)nc21 [Example 19, 7-{3-[Bis-(2-hydroxy-ethyl)-amino]-propylamino}-3-(2,6-difluoro-3,5-dimethoxy-phenyl)-1-ethyl-3,4-dihydro-1H-pyrimido[4,5-d]pyrimidin-2-one] | 128 to 129 °C
4 | CCN(CC)CCCCNc1ncc2c(n1)N(C1CCCC1)C(=O)N(c1c(F)c(OC)cc(OC)c1F)C2 [Example 2, 1-Cyclopentyl-7-(4-diethylamino-butylamino)-3-(2,6-difluoro-3,5-dimethoxy-phenyl)-3,4-dihydro-1H-pyrimido[4,5-d]pyrimidin-2-one] | 132 to 133 °C
5 | COc1cc(OC)c(F)c(N2Cc3cnc(NCCOCCO)nc3N(C3CCCC3)C2=O)c1F [Example 8, 1-Cyclopentyl-3-(2,6-difluoro-3,5-dimethoxy-phenyl)-7-[2-(2-hydroxy-ethoxy)-ethylamino]-3,4-dihydro-1H-pyrimido[4,5-d]pyrimidin-2-one] | 160 to 163 °C
6 | CCN1C(=O)N(c2c(F)c(OC)cc(OC)c2F)Cc2cnc(NCCOCCO)nc21 [Example 17, 3-(2,6-Difluoro-3,5-dimethoxy-phenyl)-1-ethyl-7-[2-(2-hydroxy-ethoxy)-ethylamino]-3,4-dihydro-1H-pyrimido[4,5-d]pyrimidin-2-one] | 159 to 160 °C
7 | CCN(CC)CCCCNc1ncc2c(n1)N(C1CC1)C(=O)N(c1c(F)c(OC)cc(OC)c1F)C2 [Example 9, 1-Cyclopropyl-7-(4-diethylamino-butylamino)-3-(2,6-difluoro-3,5-dimethoxy-phenyl)-3,4-dihydro-1H-pyrimido[4,5-d]pyrimidin-2-one] | 139 to 141 °C
8 | CCN1C(=O)N(c2c(F)c(OC)cc(OC)c2F)Cc2cnc(NC3CCC(O)CC3)nc21 (stereo not drawn) [Example 12, 3-(2,6-Difluoro-3,5-dimethoxy-phenyl)-1-ethyl-7-(4-hydroxy-cyclohexylamino)-3,4-dihydro-1H-pyrimido[4,5-d]pyrimidin-2-one] | 198 to 202 °C
9 | COc1cc(OC)c(F)c(N2Cc3cnc(N[C@H]4CC[C@H](O)CC4)nc3N(C3CCCC3)C2=O)c1 [Example 35, 1-Cyclopentyl-3-(2-fluoro-3,5-dimethoxy-phenyl)-7-(trans-4-hydroxy-cyclohexylamino)-3,4-dihydro-1H-pyrimido[4,5-d]pyrimidin-2-one] | 108 to 110 °C
10 | CNc1ncc2c(n1)N(C1CCNCC1)C(=O)N(c1c(F)c(OC)cc(OC)c1F)C2.O=C(O)C(F)(F)F | 135 to 140 °C
11 | CCN1C(=O)N(c2cc(OC)cc(OC)c2F)Cc2cnc(NCCCCO)nc21 [Example 26, 1-Ethyl-3-(2-fluoro-3,5-dimethoxy-phenyl)-7-(4-hydroxy-butylamino)-3,4-dihydro-1H-pyrimido[4,5-d]pyrimidin-2-one] | 129 to 131 °C
12 | COc1cc(OC)c(F)c(N2Cc3cnc(NCC(O)C(O)CN)nc3N(C3CCCC3)C2=O)c1F (stereo not drawn) [Example 15, 7-(4-Amino-2,3-dihydroxy-butylamino)-1-cyclopentyl-3-(2,6-difluoro-3,5-dimethoxy-phenyl)-3,4-dihydro-1H-pyrimido[4,5-d]pyrimidin-2-one] | 158 °C (dec.)
13 | CNc1ncc2c(n1)N(C1CCC(C(=O)O)CC1)C(=O)N(c1c(F)c(OC)cc(OC)c1F)C2 (stereo not drawn) [Example 23, 4-[3-(2,6-Difluoro-3,5-dimethoxy-phenyl)-7-methylamino-2-oxo-3,4-dihydro-2H-pyrimido[4,5-d]pyrimidin-1-yl]-cyclohexanecarboxylic Acid] | 148 °C
14 | COc1cc(OC)c(F)c(N2Cc3cnc(N)nc3N(C3CCNCC3)C2=O)c1F.O=C(O)C(F)(F)F | 200 to 220 °C (dec.)
15 | COc1cc(OC)c(F)c(N2Cc3cnc(NC[C@H](O)[C@@H](O)CO)nc3N(C3CCCC3)C2=O)c1F [Example 4, (S,S)-1-Cyclopentyl-3-(2,6-difluoro-3,5-dimethoxy-phenyl)-7-(2,3,4-trihydroxy-butylamino)-3,4-dihydro-1H-pyrimido[4,5-d]pyrimidin-2-one] | 160 °C (dec.)
16 | COc1cc(OC)c(F)c(N2Cc3cnc(NCC(O)CN)nc3N(C3CCCC3)C2=O)c1F (stereo not drawn) [Example 7, 7-(3-Amino-2-hydroxy-propylamino)-1-cyclopentyl-3-(2,6-difluoro-3,5-dimethoxy-phenyl)-3,4-dihydro-1H-pyrimido[4,5-d]pyrimidin-2-one] | 167 °C (dec.)
17 | COc1cc(OC)c(F)c(N2Cc3cnc(NC(CO)CO)nc3N(C3CCCC3)C2=O)c1F [Example 6, 1-Cyclopentyl-3-(2,6-difluoro-3,5-dimethoxy-phenyl)-7-(2-hydroxy-1-hydroxymethyl-ethylamino)-3,4-dihydro-1H-pyrimido[4,5-d]pyrimidin-2-one] | 172 to 174 °C
18 | COc1cc(OC)c(F)c(N2Cc3cnc(NC[C@@H](O)CO)nc3N(C3CCCC3)C2=O)c1 [Example 33, (R)-1-Cyclopentyl-7-(2,3-dihydroxy-propylamino)-3-(2-fluoro-3,5-dimethoxy-phenyl)-3,4-dihydro-1H-pyrimido[4,5-d]pyrimidin-2-one] | 89 to 91 °C
19 | COc1cc(OC)c(F)c(N2Cc3cnc(NC[C@H](O)CO)nc3N(C3CCCC3)C2=O)c1 [Example 27, (S)-1-Cyclopentyl-7-(2,3-dihydroxy-propylamino)-3-(2-fluoro-3,5-dimethoxy-phenyl)-3,4-dihydro-1H-pyrimido[4,5-d]pyrimidin-2-one] | 92 to 94 °C
20 | COc1cc(OC)c(F)c(N2Cc3cnc(NC4CCC(O)CC4)nc3N(C3CCCC3)C2=O)c1F (stereo not drawn) [Example 5, 1-Cyclopentyl-3-(2,6-difluoro-3,5-dimethoxy-phenyl)-7-(4-hydroxy-cyclohexylamino)-3,4-dihydro-1H-pyrimido[4,5-d]pyrimidin-2-one] | 208 to 212 °C (dec.)
21 | COc1cc(OC)c(F)c(N2Cc3cnc(NC(CO)CO)nc3N(C3CCCC3)C2=O)c1 [Example 25, 1-Cyclopentyl-3-(2-fluoro-3,5-dimethoxy-phenyl)-7-(2-hydroxy-1-hydroxymethyl-ethylamino)-3,4-dihydro-1H-pyrimido[4,5-d]pyrimidin-2-one] | 194 to 195 °C
22 | CCN1C(=O)N(c2c(F)c(OC)cc(OC)c2F)Cc2cnc(NCC(O)C(C)O)nc21 (stereo not drawn) [Example 21, 3-(2,6-Difluoro-3,5-dimethoxy-phenyl)-7-(2,3-dihydroxy-butylamino)-1-ethyl-3,4-dihydro-1H-pyrimido[4,5-d]pyrimidin-2-one] | 171 to 173 °C
23 | CCOc1ccc(F)c(N2Cc3cnc(NCCCCN(CC)CC)nc3N(C3CCCC3)C2=O)c1F [Example 32, 1-Cyclopentyl-7-(4-diethylamino-butylamino)-3-(3-ethoxy-2,6-difluoro-phenyl)-3,4-dihydro-1H-pyrimido[4,5-d]pyrimidin-2-one] | 129 to 130 °C
24 | COc1cc(OC)c(F)c(N2Cc3cnc(NCC(O)CO)nc3N(C3CCCC3)C2=O)c1F (stereo not drawn) [Example 20, 1-Cyclopentyl-3-(2,6-difluoro-3,5-dimethoxy-phenyl)-7-(2,3-dihydroxy-propylamino)-3,4-dihydro-1H-pyrimido[4,5-d]pyrimidin-2-one] | 179 to 182 °C
25 | CCN1C(=O)N(c2c(F)c(OC)cc(OC)c2F)Cc2cnc(NCC(O)C(O)CN)nc21 (stereo not drawn) [Example 18, 7-(4-Amino-2,3-dihydroxy-butylamino)-3-(2,6-difluoro-3,5-dimethoxy-phenyl)-1-ethyl-3,4-dihydro-1H-pyrimido[4,5-d]pyrimidin-2-one] | 115 °C (dec.)
26 | CCN1C(=O)N(c2c(F)c(OC)cc(OC)c2F)Cc2cnc(NCC(O)CO)nc21 (stereo not drawn) [Example 31, 3-(2,6-Difluoro-3,5-dimethoxy-phenyl)-7-(2,3-dihydroxy-propylamino)-1-ethyl-3,4-dihydro-1H-pyrimido[4,5-d]pyrimidin-2-one] | 148 to 152 °C
27 | COc1cc(OC)c(F)c(N2Cc3cnc(NC[C@H](O)[C@@H](O)CO)nc3N(C3CCCC3)C2=O)c1 [Example 16, 1-Cyclopentyl-3-(2-fluoro-3,5-dimethoxy-phenyl)-7-([S,S]-2,3,4-trihydroxy-butylamino)-3,4-dihydro-1H-pyrimido[4,5-d]pyrimidin-2-one] | 86 to 88 °C
28 | CCN1C(=O)N(c2c(F)c(OC)cc(OC)c2F)Cc2cnc(NC(CO)CO)nc21 [Example 11, 3-(2,6-Difluoro-3,5-dimethoxy-phenyl)-1-ethyl-7-(2-hydroxy-1-hydroxymethyl-ethylamino)-3,4-dihydro-1H-pyrimido[4,5-d]pyrimidin-2-one] | 168 to 172 °C
29 | CCN(CC)CCCCNc1ncc2c(n1)N(CC)C(=O)N(c1c(F)c(OC)cc(OC)c1F)C2 [Example 10, 7-(4-Diethylamino-butylamino)-3-(2,6-difluoro-3,5-dimethoxy-phenyl)-1-ethyl-3,4-dihydro-1H-pyrimido[4,5-d]pyrimidin-2-one] | 140 to 141 °C
30 | COc1cc(OC)c(F)c(N2Cc3cnc(NCC(O)CO)nc3N(C3CCCC3)C2=O)c1F (stereo not drawn) [Example 14, 1-Cyclopentyl-3-(2,6-difluoro-3,5-dimethoxy-phenyl)-7-(2,3-dihydroxy-propylamino)-3,4-dihydro-1H-pyrimido[4,5-d]pyrimidin-2-one] | 118 to 122 °C
